These results are taken from ChEMBL document CHEMBL1159003, “Chemical investigation and anti-inflammatory activity of Vitex negundo seeds” (1992).

This test has as its system Rattus norvegicus. In words: Antiinflammatory activity in Sprague-Dawley rat assessed as inhibition of carrageenan-induced paw edema at 50 mg/kg, po after 3.5 hrs. In kind it is functional.
The term inhibition in vivo denotes the drop in the measured response relative to a control, in per cent. As for `CC1(C)CC[C@]2(C(=O)O)CC[C@]3(C)C(=CC[C@@H]4[C@@]5(C)C[C@H](O)[C@@H](O)C(C)(C)C5=CC[C@]43C)[C@@H]2C1`, the inhibition in vivo at 50 mg/kg amounted to 34.3%.

With `CC1(C)CC[C@]2(C(=O)O)CC[C@]3(C)C(=CC[C@@H]4[C@@]5(C)C[C@@H](O)[C@@H](O)C(C)(C)C5=CC[C@]43C)[C@@H]2C1`, the inhibition in vivo at 50 mg/kg worked out at 18.7%. As to `CC(C)Cc1ccc(C(C)C(=O)O)cc1` (stereo not drawn) [IBUPROFEN], the inhibition in vivo at 50 mg/kg came to 63.2%.
